Tests used:
hindquarter blood flow = test: Vasodilatation in vivo (perfused hindquarters at constant pressure); settings: Rattus norvegicus, iv; dose producing a 50% increase in hindquarter blood flow; bolus i.v.; anaesthetised male Wistar rats; read-out: EDHQ₅₀
Procedure: Male Wistar rats (300 g) were anaesthetised with a sodium 5-ethyl-5-(1-methylpropyl)-2-thiobarbiturate/sodium pentobarbitone mixture i.p. (62.5 and 22.5 mg/kg respectively). The trachea was cannulated and the rats breathed spontaneously air enriched with O₂ (5 ml/min). Blood pressure was recorded from a carotid artery and a jugular vein was cannulated for the administration of compounds. The temperature of the animal was maintained at 37°C by the use of an electric blanket. […] The perfusion circuit was primed with 5% bovine serum albumin dissolved in 0.9% sodium chloride solution, pH adjusted to 7.4. Initially the pump rate was set between 10 and 15 ml/min to match the hind quarter perfusion pressure to that of the systemic circulation. Once set, the pressure remained unaltered for the rest of the experiment. A change in the speed of the pump (equivalent to hindquarter blood flow) was used to assess the changes in hindquarter vascular resistance.
All compounds were administered as a bolus i.v. and from the dose response curves the dose required to produce a 50% increase in hindquarter blood flow (EDHQ₅₀) was determined in µmoles/kg.

[1] = tested on: bronchoconstrictor response; test: Anti-allergic activity (ovalbumen challenge in sensitised animals); assay type: in vivo, Duncan Hartley guinea-pigs; settings: Cavia porcellus, iv, 0.5 h; dose of 11 µmol/kg i.v.; ovalbumen 1mg.kg⁻¹ i.v. challenge 30 minutes following drug administration; sensitised guinea-pigs; read-out: inhibition of the control bronchoconstrictor response
Procedure: Male Duncan Hartley guinea-pigs (250-300 g) were sensitised to ovalbumen by i.p. injection of 2 ml of 50mg.ml⁻¹ i.p. and 0.2 ml s.c. Three weeks later they were anaesthetised with 60mg.kg⁻¹ sodium pentabarbitone. The trachea was cannulated and the animal respired at a rate of 40 breaths per minute and at an initial tracheal inflation pressure of 16 mmHg. Tracheal inflation pressure was measured by a transducer connected to a side arm of the respiration circuit. The carotid artery was cannulated for the measurement of blood pressure and the signal was used to trigger an instantaneous rate meter. A jugular vein was cannulated for the administration of drug and allergen. After surgery the animals were allowed to stabilise and the drug was administered i.v. as a bolus. Following this, ovalbumen 1mg.kg⁻¹ was injected i.v. as the antigen challenge either 2, 15 or 30 minutes following drug treatment and the peak bronchoconstrictor response recorded. For the control group ovalbumen only was given. One ovalbumen challenge per guinea-pig was used and n = 6 for each time point. The percentage increase in tracheal inflation pressure was calculated.

`CCCOc1ccccc1-c1ccc(C#N)c(=O)[nH]1` [Example 1, 3-Cyano-6-(2-propoxyphenyl)-2(1H)-pyridinone] was tested. Which ED50 (hindquarter blood flow) did it give?
The ED50 was 11.5 µmol/kg.

How did the ED50 (hindquarter blood flow) turn out when `CCCOc1ccccc1-c1ccc(C(N)=O)c(=O)[nH]1` [Example 2, 6-(2-Propoxyphenyl)-1,2-dihydro-2-oxopyridine-3-carboxamide] was run?
The ED50 was 14 µmol/kg.

And the inhibition at 11 µmol/kg [1]?
Its inhibition at 11 µmol/kg is 44%.
